# Paper PMC9090415, “Discovery of small molecule inhibitors of Plasmodium falciparum apicoplast DNA polymerase” (Journal of Enzyme Inhibition and Medicinal Chemistry, 2022)
# Biological target: P. falciparum apicoplast DNA polymerase (Pf-apPOL) (Plasmodium falciparum, UniProt Q8ILY1)
# Experiment: Fluorescence-based high-throughput DNA polymerase assay (molecular beacon), primary screen and dose-response
# Format: biochemical
# Description: The HT assay employs a molecular beacon, a stem-loop DNA template with a Cy3 dye and the Black Hole Quencher on the 3′ and 5′ ends of the DNA, respectively. Pf-apPOL concentration is based on a calculated absorptivity of ε280 = 56750 M^−1 cm^−1. Reactions were carried out at 25 °C, using Corning 3575 […] (well-volume, 20 µL). Assays testing for compound inhibition composed of reaction buffer (pH 7.9 in 50 mM potassium acetate, 20 mM Tris-acetate and 10 mM magnesium acetate), Pf-apPOL (20 nM), DNA substrate (20 nM), dNTPs (6 µM), and compound (10 µM in DMSO). The DNA and nucleotide substrates (dNTPs) were at concentrations of 20 nM and 6 µM, respectively, in the assay. Pf-apPOL was incubated in the reaction buffer with dNTPs and the compound of interest (10 µM, in the assay) at 25 °C for 10 min. The DNA substrate was then added and the reaction was allowed to proceed for 90 min at 25 °C.
# Each assay plate contained 16 negative controls (no Pf-apPOL, DMSO present) and 16 positive controls (Pf-apPOL present, no DMSO). The fluorescence of each well was determined using a BioTek Synergy Neo fluorescence plate reader using excitation and emission wavelengths of 555 and 570 nm, respectively.
# In the above, Min is the average of fluorescence emission of the negative controls (substrate only), Max the average fluorescence emission from the positive controls (enzyme + substrate), and Test the emission from the assays in the presence of compounds (enzyme + compound + substrates). […] […] The IC50 of each compound was determined using Equation (2): (2) IC50= Vmax/(1+ (I/IC50)^n)
# In the above, n measures cooperativity, with n > 1 indicating synergistic binding of more than a single molecule of the compound.
# To identify apPOL inhibitors we utilised our previously developed high-throughput DNA polymerase assay. The HT assay is based on a molecular beacon DNA template that forms a stem-loop with a Cy3 dye and the Black Hole Quencher on the 3′ and 5′ ends of the DNA, respectively. DNA polymerase activity extends an annealed primer through the stem region, displacing the fluorophore from the quencher, thereby increasing its fluorescence (Figure 1(A)). The assay accurately recapitulates the kinetic behaviour of apPOL, as measured through more conventional low-throughput gel-based assays. The Z′ factor for the assay described here was 0.9 across all plates (data not shown).
# Figure 1. High-throughput screening. (A) The fluorescent-based DNA polymerase assay used to screen the compound libraries. The DNA template strand is a hairpin loop with a primer annealed to the loop. The 3’ end of the primer is 11 bases away from the 6 bp duplex. Strand displacement activity of the DNA polymerase separates the Cy3 dye from the Black hole quencher leading to an increase in fluorescent signal. (B) The high-throughput assay workflow. The DNA polymerase is incubated with […] compound for 10 min prior to addition of the hairpin substrate. The reaction is quenched at 3 different time points and the fluorescent signal is measured and % inhibition is determined using the provided equation.
# [1] = supplemental file 2, sheet IC50 nontoxic compounds; Pf-apPOL
# Chain of P. falciparum apicoplast DNA polymerase (Pf-apPOL) (Q8ILY1 entry or part of it): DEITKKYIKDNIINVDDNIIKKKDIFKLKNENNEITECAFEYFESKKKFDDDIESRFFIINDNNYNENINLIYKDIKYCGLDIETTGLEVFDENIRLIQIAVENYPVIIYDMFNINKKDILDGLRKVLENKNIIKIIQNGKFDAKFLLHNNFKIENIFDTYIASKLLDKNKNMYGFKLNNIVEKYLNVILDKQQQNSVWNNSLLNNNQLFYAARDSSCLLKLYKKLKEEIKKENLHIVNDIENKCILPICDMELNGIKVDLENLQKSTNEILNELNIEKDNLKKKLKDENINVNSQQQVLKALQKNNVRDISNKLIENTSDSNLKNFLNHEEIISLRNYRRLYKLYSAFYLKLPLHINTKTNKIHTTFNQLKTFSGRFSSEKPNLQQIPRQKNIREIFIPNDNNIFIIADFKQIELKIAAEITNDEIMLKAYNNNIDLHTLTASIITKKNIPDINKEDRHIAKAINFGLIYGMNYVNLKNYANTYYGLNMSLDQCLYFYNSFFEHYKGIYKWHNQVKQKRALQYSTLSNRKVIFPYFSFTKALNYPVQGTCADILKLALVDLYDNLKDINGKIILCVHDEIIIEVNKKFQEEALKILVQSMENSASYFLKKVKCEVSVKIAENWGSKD
smiles,measurement,setting,value
"CC(C)CCNC(=O)c1cnn2c(O)cc(CSc3ccc(Cl)cc3)nc12 [Molecule 101, CC(CCNC(=O)c1cnn2c1nc(CSc1ccc(cc1)Cl)cc2O)C]",DNA Pol,"'DNA Pol' of the 186 hits list (screen value); 90 min, 10 µM",47
same,% inhibition Apo pol 10',DRC-1; 10'; conc 2.5,0.1018%
same,% inhibition Apo pol 10',DRC-1; 10'; conc 5,10.5875%
same,% inhibition Apo pol 10',DRC-1; 10'; conc 10,55.0331%
same,% inhibition Apo pol 10',DRC-1; 10'; conc 20,79.7694%
same,% inhibition Apo pol 10',DRC-1; 10'; conc 40,93.5546%
same,% inhibition Apo pol 10',DRC-1; 10'; conc 80,97.7054%
same,% inhibition Apol 90',DRC-1; 90'; conc 2.5,-5.869%
same,% inhibition Apol 90',DRC-1; 90'; conc 5,6.076%
same,% inhibition Apol 90',DRC-1; 90'; conc 10,52.4114%
same,% inhibition Apol 90',DRC-1; 90'; conc 20,78.3109%
same,% inhibition Apol 90',DRC-1; 90'; conc 40,89.1904%
same,% inhibition Apol 90',DRC-1; 90'; conc 80,96.2635%
same,% inhibition apPOL 180',DRC-1; 180'; conc 2.5,-11.3834%
same,% inhibition apPOL 180',DRC-1; 180'; conc 5,-2.604%
same,% inhibition apPOL 180',DRC-1; 180'; conc 10,39.1813%
same,% inhibition apPOL 180',DRC-1; 180'; conc 20,71.0945%
same,% inhibition apPOL 180',DRC-1; 180'; conc 40,85.4085%
same,% inhibition apPOL 180',DRC-1; 180'; conc 80,94.6304%
same,% inhibition Apo pol 5',DRC-2; 5'; conc 2.5,-1.9%
same,% inhibition Apo pol 5',DRC-2; 5'; conc 5,20%
same,% inhibition Apo pol 5',DRC-2; 5'; conc 10,55%
same,% inhibition Apo pol 5',DRC-2; 5'; conc 20,59%
same,% inhibition Apo pol 5',DRC-2; 5'; conc 40,66%
same,% inhibition Apo pol 5',DRC-2; 5'; conc 80,69%
same,% inhibition Apo pol 5',DRC-2; 5'; concentration 40,66%
same,% inhibition Apo pol 5',DRC-2; 5'; concentration 80,69%
same,% inhibition Apol 40',DRC-2; 40'; conc 2.5,-1.08%
same,% inhibition Apol 40',DRC-2; 40'; conc 5,24%
same,% inhibition Apol 40',DRC-2; 40'; conc 10,65%
same,% inhibition Apol 40',DRC-2; 40'; conc 20,69%
same,% inhibition Apol 40',DRC-2; 40'; conc 40,76%
same,% inhibition Apol 40',DRC-2; 40'; conc 80,81%
same,% inhibition Apol 40',DRC-2; 40'; concentration 20,69%
same,% inhibition ApPOL 90',DRC-2; 90'; conc 2.5,-2.68%
same,% inhibition ApPOL 90',DRC-2; 90'; conc 5,22%
same,% inhibition ApPOL 90',DRC-2; 90'; conc 10,66%
same,% inhibition ApPOL 90',DRC-2; 90'; conc 20,70%
same,% inhibition ApPOL 90',DRC-2; 90'; conc 40,77%
same,% inhibition ApPOL 90',DRC-2; 90'; conc 80,83%
same,% inhibition ApPOL 90',DRC-2; 90'; concentration 10,66%
same,% inhibition apPOL 180',DRC-2; 180'; conc 2.5,-4.21%
same,% inhibition apPOL 180',DRC-2; 180'; conc 5,16%
same,% inhibition apPOL 180',DRC-2; 180'; conc 10,60%
same,% inhibition apPOL 180',DRC-2; 180'; conc 20,66%
same,% inhibition apPOL 180',DRC-2; 180'; conc 40,75%
same,% inhibition apPOL 180',DRC-2; 180'; conc 80,85%
same,% inhibition apPOL 180',DRC-2; 180'; concentration 20,66%
same,DNA Pol,"primary screen value, ""DNA Pol""; 90 min, 10 µM",47
O=C(Cn1ccc2c(=O)[nH]ccc21)Nc1cccc(Cl)c1 [Molecule 23],IC50,[1],9.11 µM
Oc1cccnc1/N=C/c1cc(I)cc(I)c1O [KU0073720],% inhibition Apo pol 10',DRC-1; concentration 2.5; 10',24.1498%
same,% inhibition Apol 90',DRC-1; concentration 2.5; 90',12.6325%
same,% inhibition apPOL 180',DRC-1; concentration 2.5; 180',7.269%
same,% inhibition Apo pol 10',DRC-1; concentration 5; 10',35.1256%
same,% inhibition Apol 90',DRC-1; concentration 5; 90',18.9546%
same,% inhibition apPOL 180',DRC-1; concentration 5; 180',7.696%
same,% inhibition Apo pol 10',DRC-1; concentration 10; 10',54.1581%
same,% inhibition Apol 90',DRC-1; concentration 10; 90',35.5541%
same,% inhibition apPOL 180',DRC-1; concentration 10; 180',22.0989%
same,% inhibition Apo pol 10',DRC-1; concentration 20; 10',82.6757%
same,% inhibition Apol 90',DRC-1; concentration 20; 90',72.4882%
same,% inhibition apPOL 180',DRC-1; concentration 20; 180',62.032%
same,% inhibition Apo pol 10',DRC-1; concentration 40; 10',88.0061%
same,% inhibition Apol 90',DRC-1; concentration 40; 90',85.8588%
same,% inhibition apPOL 180',DRC-1; concentration 40; 180',82.0572%
same,% inhibition Apo pol 10',DRC-1; concentration 80 (unit not given); 10',86.1265%
same,% inhibition Apol 90',DRC-1; concentration 80; 90',87.3428%
same,% inhibition apPOL 180',DRC-1; concentration 80; 180',87.5745%
same,% inhibition Apo pol 5',DRC-2; 5'; concentration 40,63%
same,% inhibition Apol 40',DRC-2; 40'; concentration 20,63%
same,% inhibition Apo pol 5',DRC-2; concentration 2.5; 5',26%
same,% inhibition Apol 40',DRC-2; concentration 2.5; 40',24%
same,% inhibition ApPOL 90',DRC-2; concentration 2.5; 90',22%
same,% inhibition apPOL 180',DRC-2; concentration 2.5; 180',15%
same,% inhibition Apo pol 5',DRC-2; concentration 5; 5',36%
same,% inhibition Apol 40',DRC-2; concentration 5; 40',33%
same,% inhibition ApPOL 90',DRC-2; concentration 5; 90',28%
same,% inhibition apPOL 180',DRC-2; concentration 5; 180',17%
same,% inhibition Apo pol 5',DRC-2; concentration 10; 5',51%
same,% inhibition Apol 40',DRC-2; concentration 10; 40',52%
same,% inhibition ApPOL 90',DRC-2; concentration 10; 90',49%
same,% inhibition apPOL 180',DRC-2; concentration 10; 180',37%
same,% inhibition Apo pol 5',DRC-2; concentration 20; 5',57%
same,% inhibition Apol 40',DRC-2; concentration 20; 40',63%
same,% inhibition ApPOL 90',DRC-2; concentration 20; 90',62%
same,% inhibition apPOL 180',DRC-2; concentration 20; 180',54%
same,% inhibition Apo pol 5',DRC-2; concentration 40; 5',63%
same,% inhibition Apol 40',DRC-2; concentration 40; 40',73%
same,% inhibition ApPOL 90',DRC-2; concentration 40; 90',75%
same,% inhibition apPOL 180',DRC-2; concentration 40; 180',74%
same,% inhibition Apo pol 5',DRC-2; concentration 80; 5',58%
same,% inhibition Apol 40',DRC-2; concentration 80; 40',72%
same,% inhibition ApPOL 90',DRC-2; concentration 80; 90',76%
same,% inhibition apPOL 180',DRC-2; concentration 80; 180',77%
same,DNA Pol,"primary screen value of the 186 hits; unit not given; 90 min, 10 µM",46
same,DNA Pol,"primary screen value; head prints only 'DNA Pol'; 90 min, 10 µM",46
COc1ccc2c(c1)C(c1ccccc1OC)CC(=O)O2 (stereo not shown) [Molecule 38],IC50,[1],11.2 µM
